Assay [1] deals with sphingosine-1-phosphate receptor 5 (S1P5) (Homo sapiens (Human), UniProt Q9H228). As to the kind of experiment: Inhibition of cAMP production (HTRF), S1P5 CHO-K1 cells. In kind it is cell-based. The note with it: for hS1P5 cAMP pEC50: inhibition of cAMP production. On the procedure:
(§1) Stable clonal Chinese hamster ovary K1 (CHO-K1) cells co-expressing EA-β-arrestin2 and the human sphingosine-1-phosphate receptor 2 (NM_004230.3, S1P2), human sphingosine-1-phosphate receptor 3 (NM_005226, S1P3) and sphingosine-1-phosphate receptor 5 (NM_001166215.1, S1P5) with a C-terminal Prolink™ tag were purchased from DiscoverX corporation (S1P2: Cat #93-0256C2, S1P3: Cat #93-0217C2, S1P5: Cat #93-0583C2).
(§2) Cell lines were cultured in AssayComplete™ Media 6 (DiscoverX Corporation, Cat #: 920018GF2) at 37° C. and 5% CO2 in a humidified CO2 and temperature-controlled incubator. To begin assay plating, cells were washed with dulbecco's phosphate buffered saline (CellGro, Cat #: 21-031-CV) and lifted from the culturing flask by incubation (37° C., 5 min) with CellStripper (Cellgro, Cat #: 25-056-CI). […] Plated cells were incubated overnight at 37° C. and 5% CO2 in a humidified CO2 and temperature-controlled incubator.
(§3) S1P3 and S1P5 Agonist-promoted G-protein responses were determined by measuring changes in intracellular cAMP using the HTRF® cAMP HiRange kit (CisBio, Cat #: 62AM6PEJ) based on time-resolved fluorescence resonance energy transfer (TR-FRET) technology. […] Following a 30-minute room temperature incubation the components of the cAMP HiRange kit were added as per the manufacturer's instructions. After an hour incubation at room temperature, plates were analyzed by a BMG PheraStar microplate reader.
(§4) The tables below include the efficacy of the compound as compared to a positive control, referred to as “SPAN”. These values are normalized to fingolimod, a known agonist of the sphingosine-1-phosphate 3 and 5 receptor or CYM5520, a known agonist of the sphingosine-1-phosphate 2 receptor. The tables also include potency values (pEC50) for modulating discrete receptor-mediated activities (inhibition of cAMP production or inositol monophosphate accumulation).
(In general: Changes in cAMP serve as a functional read-out for many G protein-coupled receptors.)

For assay [2], the target named is T1, human sphingosine-1-phosphate receptor 1 (S1P1) (Homo sapiens (Human), UniProt P21453). Nature of the assay: Inhibition of cAMP production (HTRF cAMP HiRange), S1P1 CHO-K1 cells. The note with it: for Emax: CHO-K1, read-out: hS1P1 cAMP SPAN; for hS1P1 cAMP pEC50: inhibition of cAMP production, S1P1 CHO-K1 cells. In kind it is cell-based. Put shortly:
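CHO-K1 cells stably co-expressing human S1P1 (C-terminal Prolink tag) and EA-β-arrestin2 were grown in AssayComplete Media 6 at 37° C. and 5% CO2, plated, and incubated overnight. Agonist-driven inhibition of intracellular cAMP was read by TR-FRET with the HTRF cAMP HiRange kit on a PheraStar reader. Potency is pEC50, and efficacy (SPAN) is normalized to fingolimod.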
Target sequence in this assay (P21453 whole entry, looked up): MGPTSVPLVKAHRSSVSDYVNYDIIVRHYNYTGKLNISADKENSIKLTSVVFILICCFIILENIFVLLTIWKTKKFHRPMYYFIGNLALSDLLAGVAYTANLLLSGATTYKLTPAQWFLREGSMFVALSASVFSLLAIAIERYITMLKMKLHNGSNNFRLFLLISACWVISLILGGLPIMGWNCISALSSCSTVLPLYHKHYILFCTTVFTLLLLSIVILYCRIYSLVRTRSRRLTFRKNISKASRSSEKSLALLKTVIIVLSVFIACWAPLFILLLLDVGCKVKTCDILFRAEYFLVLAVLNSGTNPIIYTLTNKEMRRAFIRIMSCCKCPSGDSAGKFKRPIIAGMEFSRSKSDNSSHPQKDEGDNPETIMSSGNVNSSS

Assay [3] addresses human sphingosine-1-phosphate receptor 3 (S1P3) (Homo sapiens (Human), UniProt Q99500). As to the kind of experiment: Inhibition of cAMP production (HTRF), S1P3 CHO-K1 cells. Format: cell-based. The note with it: for hS1P3 cAMP pEC50: inhibition of cAMP production. As to the method:
as §1, §2, §3, §4

The target of assay [4] is human sphingosine-1-phosphate receptor 2 (S1P2) (Homo sapiens (Human), UniProt O95136). As to the kind of experiment: Inositol monophosphate production (IP-one TB kit), S1P2 CHO-K1 cells. Format: cell-based. The note with it: for hS1P2 IP-one pEC50: inositol monophosphate accumulation. As to the method:
as §1, §2
S1P2 Agonist-promoted G-protein responses were determined by measuring changes in intracellular inositol monophosphate using the IP-one TB kit (CisBio, Cat #: 62IPAPEJ) based on time-resolved fluorescence resonance energy transfer (TR-FRET) technology. AssayComplete™ Cell Plating 2 Reagent was removed and replaced with 1× IP-one stimulation buffer (as per manufacturer's instructions) along with test or control compounds at the desired concentrations. Following a 60-minute incubation at 37° C. and 5% CO2 in a humidified CO2 and temperature-controlled incubator, the components of the IP-one TB kit were added as per the manufacturer's instructions. After an hour incubation at room temperature, plates were analyzed by a BMG PheraStar microplate reader.
as §4

Assay [5] deals with T1, human sphingosine-1-phosphate receptor 1 (S1P1). Nature of the assay: β-Arrestin2 recruitment assay (PathHunter), S1P1 CHO-K1 cells. The note with it: for Emax: CHO-K1, read-out: hS1P1 B-arrestin2 SPAN; for hS1P1 B-arrestin2 pEC50: β-arrestin2 recruitment, S1P1 CHO-K1 cells. In kind it is cell-based. Put shortly: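 Enzyme-fragment complementation read-out: agonist-driven β-arrestin2 binding to ProLink-tagged human S1P1 in stable CHO-K1 cells restores β-galactosidase, measured 1 h at room temperature after a 60 min 37° C. compound incubation. Potency as pEC50, efficacy relative to fingolimod (SPAN).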
Target sequence in this assay (P21453 whole entry, looked up): as above
Target sequence in this assay (P32121 whole entry partner, looked up): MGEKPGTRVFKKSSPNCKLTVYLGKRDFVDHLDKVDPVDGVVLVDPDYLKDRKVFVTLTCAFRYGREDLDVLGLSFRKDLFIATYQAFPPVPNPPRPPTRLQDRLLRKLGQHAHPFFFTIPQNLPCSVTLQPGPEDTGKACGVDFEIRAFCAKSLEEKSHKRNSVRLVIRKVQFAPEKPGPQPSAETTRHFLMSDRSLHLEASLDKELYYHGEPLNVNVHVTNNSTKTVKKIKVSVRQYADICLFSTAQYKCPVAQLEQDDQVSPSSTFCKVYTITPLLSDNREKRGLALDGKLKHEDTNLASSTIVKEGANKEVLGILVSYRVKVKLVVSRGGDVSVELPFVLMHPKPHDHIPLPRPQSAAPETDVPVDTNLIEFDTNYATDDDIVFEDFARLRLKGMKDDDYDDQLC

The subject of assay [6] is paclitaxel induced peripheral neuropathy. As to the kind of experiment: Reversal of allodynia induced by paclitaxel in mice (s.c. or p.o., von Frey frequency method). In kind it is in vivo, c57bl/6 mice. The note with it: Mus musculus, po, 1 h, 3 mg/kg p.o., tested 60 min after dosing, read-out: Screen @ 3 mg/kg po (% MPE). In a few lines: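 Neuropathy was induced in mice by paclitaxel (6 mg/kg i.p., days 1, 3, 5, 7) or oxaliplatin (4 mg/kg i.p., days 1-5), with re-testing about 14 days later. Compounds were given s.c. (tested at 30 min) or p.o. (tested at 60 min; paclitaxel only). A 0.4 g von Frey filament was applied ten times per paw, and % non-response was converted to % MPE.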

Setting [7] is: efficacy (SPAN) normalized to fingolimod.
Where [8] appears, read: efficacy normalized to fingolimod.

The record followed here is patent US11912693B2, “Compounds for modulating S1P1 activity and methods of using the same” (TREVENA, INC., priority 2017, dated 2024).

Bounds are passed on as bounds.

sphingosine-1-phosphate receptor 5 (S1P5), sequence (Q9H228 whole entry): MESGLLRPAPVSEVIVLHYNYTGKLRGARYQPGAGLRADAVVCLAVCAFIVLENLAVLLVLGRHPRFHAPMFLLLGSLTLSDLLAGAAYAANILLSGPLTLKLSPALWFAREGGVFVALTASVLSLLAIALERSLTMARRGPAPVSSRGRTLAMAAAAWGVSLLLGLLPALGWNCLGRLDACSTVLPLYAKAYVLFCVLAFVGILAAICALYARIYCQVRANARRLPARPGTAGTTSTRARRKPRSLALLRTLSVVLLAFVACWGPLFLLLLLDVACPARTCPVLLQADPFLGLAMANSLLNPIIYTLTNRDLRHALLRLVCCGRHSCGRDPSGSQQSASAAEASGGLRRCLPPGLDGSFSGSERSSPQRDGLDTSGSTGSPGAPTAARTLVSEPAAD
human sphingosine-1-phosphate receptor 3 (S1P3), sequence (Q99500 whole entry): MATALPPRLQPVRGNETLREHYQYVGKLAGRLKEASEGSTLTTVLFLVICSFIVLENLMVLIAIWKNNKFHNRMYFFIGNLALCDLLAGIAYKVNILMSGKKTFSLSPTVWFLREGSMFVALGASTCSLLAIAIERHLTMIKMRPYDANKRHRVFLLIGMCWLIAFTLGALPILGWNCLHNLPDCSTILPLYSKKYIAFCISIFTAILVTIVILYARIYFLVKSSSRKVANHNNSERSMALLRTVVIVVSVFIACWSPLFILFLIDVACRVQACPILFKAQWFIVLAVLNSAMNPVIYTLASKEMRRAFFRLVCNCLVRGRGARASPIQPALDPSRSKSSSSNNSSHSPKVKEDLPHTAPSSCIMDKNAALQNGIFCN
human sphingosine-1-phosphate receptor 2 (S1P2), sequence (O95136 whole entry): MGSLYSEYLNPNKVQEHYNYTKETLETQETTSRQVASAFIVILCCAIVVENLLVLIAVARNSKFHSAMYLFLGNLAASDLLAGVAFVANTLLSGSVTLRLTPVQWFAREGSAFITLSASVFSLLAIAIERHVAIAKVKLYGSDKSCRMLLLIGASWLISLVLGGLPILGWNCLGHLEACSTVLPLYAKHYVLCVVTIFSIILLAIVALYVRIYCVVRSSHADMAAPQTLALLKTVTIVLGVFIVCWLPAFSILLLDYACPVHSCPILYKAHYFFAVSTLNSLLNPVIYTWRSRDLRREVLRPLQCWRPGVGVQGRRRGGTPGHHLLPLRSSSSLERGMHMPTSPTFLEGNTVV

Turning to `C=CCNc1ccc(-c2nc(-c3ccc4[nH]ncc4c3)no2)cc1C#N` [Compound 141, 5-(3-(1H-indazol-5-yl)-1,2,4-oxadiazol-5-yl)-2-(allylamino)benzonitrile], the Emax is over 50% in assay [1] (CHO-K1, efficacy normalized to fingolimod, read-out: hS1P5 cAMP SPAN); over 75% in assay [2] (setting [7]); over 50% in assay [3] (CHO-K1, efficacy normalized to fingolimod, read-out: hS1P3 cAMP SPAN); under 50% in assay [4] (CHO-K1, efficacy normalized to CYM5520, read-out: hS1P2 IP-one SPAN); over 75% in assay [5] (setting [7]). Moreover, the “hS1P5 cAMP pEC50” value in assay [1] is over 5.0. For the same molecule, in assay [2], the “hS1P1 cAMP pEC50” value is over 6.5. Also, the “hS1P3 cAMP pEC50” value in assay [3] is over 5.0. Besides, the “hS1P2 IP-one pEC50” value in assay [4] is under 5.0. In addition, the “hS1P1 B-arrestin2 pEC50” value in assay [5] is over 5.
Turning to `CCC1(CC)CC(=O)c2cc(-c3nc(-c4ccc5[nH]ncc5c4)no3)ccc2O1` [Compound 152, 6-(3-(1H-indazol-5-yl)-1,2,4-oxadiazol-5-yl)-2,2-diethylchroman-4-one], the “hS1P5 cAMP SPAN” value in assay [1] (setting [8]) was under 50. Besides, the “hS1P5 cAMP pEC50” value in assay [1] is under 5.0. For the same molecule, the “hS1P1 cAMP SPAN” value in assay [2] (setting [7]) is recorded as over 75. The “hS1P1 cAMP pEC50” value in assay [2] is on record as under 6.5. Besides, the “hS1P3 cAMP SPAN” value in assay [3] (setting [8]) is under 50. Besides, the “hS1P3 cAMP pEC50” value in assay [3] is under 5.0. The “hS1P2 IP-one SPAN” value in assay [4] (efficacy normalized to CYM5520) was under 50. For the same molecule, the “hS1P2 IP-one pEC50” value in assay [4] is on record as under 5.0. Besides, the “hS1P1 B-arrestin2 SPAN” value in assay [5] (setting [7]) is recorded as over 75. In addition, in assay [5], the “hS1P1 B-arrestin2 pEC50” value is on record as over 5.
As to `CC(C)n1nnc2cc(-c3nc4c(o3)Cc3ccccc3-4)ccc21` [Compound 219, 5-{8H-indeno[1,2-d][1,3]oxazol-2-yl}-1-(propan-2-yl)-1H-1,2,3-benzotriazole], the “hS1P5 cAMP pEC50” value in assay [1] is reported as under 5.0. Besides, the “hS1P1 cAMP pEC50” value in assay [2] is over 6.5. Further, in assay [3], the “hS1P3 cAMP pEC50” value is reported as under 5.0. The “hS1P2 IP-one pEC50” value in assay [4] is over 5.0. Moreover, the “hS1P1 B-arrestin2 pEC50” value in assay [5] is on record as over 5.
For the molecule `COc1cnccc1-c1nc(-c2ccc3c(ccn3C(C)C)c2)no1` [Compound 391, 3-(1-isopropyl-1H-indol-5-yl)-5-(3-methoxypyridin-4-yl)-1,2,4-oxadiazole], the “hS1P5 cAMP pEC50” value in assay [1] was over 5.0. In addition, in assay [2], the “hS1P1 cAMP pEC50” value is over 6.5. For the same molecule, the “hS1P3 cAMP pEC50” value in assay [3] is over 5.0. The “hS1P2 IP-one pEC50” value in assay [4] was over 5.0. Besides, in assay [5], the “hS1P1 B-arrestin2 pEC50” value was over 5.
Consider `COc1ccccc1-c1nc(-c2ccc3c(ccn3C(C)C)c2)no1` [Compound 398, 3-(1-isopropyl-1H-indol-5-yl)-5-(2-methoxyphenyl)-1,2,4-oxadiazole], for which the “hS1P5 cAMP pEC50” value in assay [1] is under 5.0. For the same molecule, in assay [2], the “hS1P1 cAMP pEC50” value is on record as over 6.5. In assay [3], the “hS1P3 cAMP pEC50” value is given as under 5.0. Further, the “hS1P2 IP-one pEC50” value in assay [4] is under 5.0. In addition, the “hS1P1 B-arrestin2 pEC50” value in assay [5] is reported as over 5.
For `COc1ccccc1-c1nnc(-c2ccc3c(c2)oc(=O)n3C)o1` [Compound 406, 6-[5-(2-methoxyphenyl)-1,3,4-oxadiazol-2-yl]-3-methyl-2,3-dihydro-1,3-benzoxazol-2-one], in assay [1], the “hS1P5 cAMP pEC50” value is under 5.0. The “hS1P1 cAMP pEC50” value in assay [2] is over 6.5. Besides, the “hS1P3 cAMP pEC50” value in assay [3] was under 5.0. The “hS1P2 IP-one pEC50” value in assay [4] was under 5.0. Also, the “hS1P1 B-arrestin2 pEC50” value in assay [5] was over 5.
Regarding `CC(C)Nc1ccc(-c2nc(-c3ccc4oc(=O)[nH]c4c3)no2)cc1C#N` [Compound 422, 2-(isopropylamino)-5-(3-(2-oxo-2,3-dihydrobenzo[d]oxazol-5-yl)-1,2,4-oxadiazol-5-yl)benzonitrile], in assay [2], the “hS1P1 cAMP pEC50” value was over 6.5. The “hS1P3 cAMP pEC50” value in assay [3] is over 5.0. The “hS1P2 IP-one pEC50” value in assay [4] is over 5.0. The “hS1P1 B-arrestin2 pEC50” value in assay [5] was over 5.
With `CCC1(CC)CC(=O)c2cc(-c3nc(-c4ccc5[nH]c(=O)oc5c4)no3)ccc2O1` [Compound 445, 6-(5-(2,2-diethyl-4-oxochroman-6-yl)-1,2,4-oxadiazol-3-yl)benzo[d]oxazol-2(3H)-one], the “hS1P1 cAMP pEC50” value in assay [2] is listed as over 6.5. For the same molecule, the “hS1P3 cAMP pEC50” value in assay [3] is under 5.0. Also, the “hS1P2 IP-one pEC50” value in assay [4] is over 5.0. In assay [5], the “hS1P1 B-arrestin2 pEC50” value is reported as over 5.
The matching figures for `CC(C)Nc1ccc(-c2nc(-c3ccc4c(c3)NC(=O)C4)no2)cc1C#N` [Compound 496, 2-(isopropylamino)-5-(3-(2-oxoindolin-6-yl)-1,2,4-oxadiazol-5-yl)benzonitrile]: over 6.5, under 5.0, under 5.0 and over 5.
For the molecule `COc1ncccc1-c1nc(-c2ccc3c(c2)nnn3C(C)C)no1` [Compound 607, 3-(1-isopropyl-1H-benzo[d][1,2,3]triazol-5-yl)-5-(2-methoxypyridin-3-yl)-1,2,4-oxadiazole], the Emax in assay [2] (setting [7]) and in assay [5] (setting [7]) was over 75% each time. Besides, the “hS1P1 cAMP pEC50” value in assay [2] is recorded as over 6.5. For the same molecule, the “hS1P1 B-arrestin2 pEC50” value in assay [5] is over 5. Moreover, the inhibition in vivo at 3 mg/kg in assay [6] was over 50%.
For `CC(C)n1nnc2cc(-c3noc(-c4cccc5c4CCC5=O)n3)ccc21` [Compound 608, 4-{3-[1-(propan-2-yl)-1H-1,2,3-benzotriazol-5-yl]-1,2,4-oxadiazol-5-yl}-2,3-dihydro-1H-inden-1-one], the “hS1P1 cAMP pEC50” value in assay [2] is given as over 6.5. Besides, in assay [5], the “hS1P1 B-arrestin2 pEC50” value is over 5. Besides, in assay [6], the inhibition in vivo at 3 mg/kg was under 50%.
The matching figures for `CC(C)n1nnc2cc(-c3noc(-c4ccccc4N(C)C)n3)ccc21` [Compound 615, N,N-dimethyl-2-{3-[1-(propan-2-yl)-1H-1,2,3-benzotriazol-5-yl]-1,2,4-oxadiazol-5-yl}aniline]: over 6.5, over 5 and over 50%.
The matching figures for `CC(C)n1nnc2cc(-c3noc(-c4cccc5c4CCC5O)n3)ccc21` (stereo not drawn) [Compound 636, 4-{3-[1-(propan-2-yl)-1H-1,2,3-benzotriazol-5-yl]-1,2,4-oxadiazol-5-yl}-2,3-dihydro-1H-inden-1-ol]: over 6.5, over 5 and under 50%.
On the same counts, the results for `CC(C)Nc1ccc(-c2nnc(-c3ccc4oc(=O)[nH]c4c3)o2)cc1C#N` [Compound 637, 5-[5-(2-oxo-2,3-dihydro-1,3-benzoxazol-5-yl)-1,3,4-oxadiazol-2-yl]-2-[(propan-2-yl)amino]benzonitrile] are over 6.5, over 5 and over 50%.
